Each molecule was assayed against T1, Calpain I (Homo sapiens, UniProt P07384) (assay: Inhibition of calpain I activity (Succ-Leu-Tyr-MNA substrate hydrolysis, fluorescence)). Settings: Table II; calpain I, 0.2 mM Succ-Leu-Tyr-MNA, pH 7.5; * mixture of diastereomers, a,b single diastereomers; read-out: IC50.
T1 construct: made in house
T1 sequence (P07384 1-714): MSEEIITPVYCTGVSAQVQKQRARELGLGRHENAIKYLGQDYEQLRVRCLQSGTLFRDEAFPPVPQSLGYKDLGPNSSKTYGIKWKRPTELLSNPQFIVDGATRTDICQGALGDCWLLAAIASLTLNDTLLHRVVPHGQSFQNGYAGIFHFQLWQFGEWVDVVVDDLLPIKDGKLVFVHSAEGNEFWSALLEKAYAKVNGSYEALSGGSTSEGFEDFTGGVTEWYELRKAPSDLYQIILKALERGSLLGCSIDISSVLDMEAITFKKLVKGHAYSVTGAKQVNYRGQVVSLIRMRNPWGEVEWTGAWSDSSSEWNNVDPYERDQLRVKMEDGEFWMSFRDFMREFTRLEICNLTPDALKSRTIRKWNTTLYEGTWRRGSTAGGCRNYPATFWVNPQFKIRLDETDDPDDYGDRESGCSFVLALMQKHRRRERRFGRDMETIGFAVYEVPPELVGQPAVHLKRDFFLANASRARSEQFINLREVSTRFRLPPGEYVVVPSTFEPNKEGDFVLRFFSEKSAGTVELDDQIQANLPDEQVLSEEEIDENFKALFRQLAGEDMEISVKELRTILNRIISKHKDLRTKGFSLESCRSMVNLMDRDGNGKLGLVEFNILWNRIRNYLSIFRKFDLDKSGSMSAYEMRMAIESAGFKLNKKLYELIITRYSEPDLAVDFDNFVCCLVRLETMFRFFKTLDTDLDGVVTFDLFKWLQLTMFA
T1 sequence (P04632 1-268 partner): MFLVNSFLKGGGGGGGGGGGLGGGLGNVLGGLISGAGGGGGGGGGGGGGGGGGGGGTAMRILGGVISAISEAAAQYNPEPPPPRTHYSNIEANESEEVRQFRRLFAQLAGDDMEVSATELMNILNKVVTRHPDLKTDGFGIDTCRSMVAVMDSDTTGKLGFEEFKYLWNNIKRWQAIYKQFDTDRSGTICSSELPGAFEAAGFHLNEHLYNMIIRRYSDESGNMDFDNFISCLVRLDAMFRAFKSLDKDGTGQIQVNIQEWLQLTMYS
Assay type: biochemical
Protocol: To evaluate inhibitory activity, stock solutions (40 times concentrated) of each compound to be tested were prepared in 100% anhydrous DMSO and […] of each inhibitor preparation were aliquoted into each of three wells of a 96-well plate. Calpain I, prepared by a modification of the method of W. J. Lee et al. (Biochem. […] To start the reaction, […] of 50 mM CaCl2 in assay buffer was added to each of the wells of the plate, excepting three, which were used as background signal baseline controls. Substrate hydrolysis was monitored every 5 minutes for a total of 30 minutes using a Fluoroskan II fluorescence plate reader. […] Inhibition of calpain I activity was calculated as the percent decrease in the rate of substrate hydrolysis in the presence of inhibitor relative to the rate in its absence. Comparison between the inhibited and control rates was made within the linear range for substrate hydrolysis. For screening, compounds were tested at […]. […] The results were plotted as percent inhibition versus log inhibitor concentration, and the IC50 was calculated from linear regression of the data.

IC50 [µM] | Compound
~0.8 | COc1cc2c(cc1OC)S(=O)(=O)NC(C(=O)N[C@H](C=O)Cc1ccccc1)C2 (single isomer, unassigned) [Cpd 12c, N-(3,4-Dihydro-6,7-dimethoxy-2H-1,2-benzothiazine-3-carbonyl)-L-phenylalaninal 1,1-dioxide]
~0.7 | COc1cc2c(cc1OC)S(=O)(=O)NC(C(=O)N[C@H](C=O)Cc1ccccc1)C2 (single isomer, unassigned) [Cpd 12d, N-(3,4-Dihydro-6,7-dimethoxy-2H-1,2-benzothiazine-3-carbonyl)-L-phenylalaninal 1,1-dioxide]
0.13 | COc1cc2c(cc1OC)S(=O)(=O)OC(C(=O)N[C@H](C=O)CC(C)C)C2 (stereo partly drawn) [Cpd 12a, N-(3,4-Dihydro-6,7-dimethoxy-2,1-benzoxathiin-3-carbonyl)-L-leucinal 1,1-dioxide]
0.03 | CN1C(C(=O)N[C@H](C=O)Cc2ccccc2)Cc2cc(N3CCOCC3)ccc2S1(=O)=O (stereo partly drawn) [Cpd 12aa, N-(3,4-Dihydro-6-(4-morpholino)-2-methyl-2H-1,2-benzothiazine-3-carbonyl)-L-phenylalaninal 1,1-dioxide]
0.051 | COc1cc2c(cc1OC)S(=O)(=O)OC(C(=O)N[C@H](C=O)Cc1ccccc1)C2 (stereo partly drawn) [Cpd 12b, N-(3,4-Dihydro-6,7-dimethoxy-2,1-benzoxathiin-3-carbonyl)-L-phenylalaninal 1,1-dioxide]
0.2 | COc1cc2c(cc1OC)S(=O)(=O)N(C)C(C(=O)N[C@H](C=O)Cc1ccccc1)C2 (stereo partly drawn) [Cpd 12e, N-(3,4-Dihydro-6,7-dimethoxy-2-methyl-2H-1,2-benzothiazine-3-carbonyl)-L-phenylalaninal 1,1-dioxide]
0.038 | COc1cc2c(cc1OC)S(=O)(=O)N(C)C(C(=O)N[C@H](C=O)Cc1ccccc1)C2 (stereo partly drawn) [Cpd 12f, N-(3,4-Dihydro-6,7-dimethoxy-2-methyl-2H-1,2-benzothiazine-3-carbonyl)-L-phenylalaninal 1,1-dioxide]
~1 | COc1cc2c(cc1OC)S(=O)(=O)N(Cc1ccccc1)C(C(=O)N[C@H](C=O)Cc1ccccc1)C2 (stereo partly drawn) [Cpd 12g, N-(2-Benzyl-3,4-dihydro-6,7-dimnethoxy-2H-1,2-benzothiazine-3-carbonyl)-L-phenylalaninal 1,1-dioxide]
0.15 | COc1cc2c(cc1OC)S(=O)(=O)N(Cc1ccccc1)C(C(=O)N[C@H](C=O)Cc1ccccc1)C2 (stereo partly drawn) [Cpd 12h, N-(2-Benzyl-3,4-dihydro-6,7-dimethoxy-2H-1,2-benzothiazine-3-carbonyl)-L-phenylalaninal 1,1-dioxide]
0.028 | CN1C(C(=O)N[C@H](C=O)Cc2ccccc2)Cc2ccccc2S1(=O)=O (stereo partly drawn) [Cpd 12i, N-(3,4-Dihydro-2-methyl-2H-1,2-benzothiazine-3-carbonyl)-L-phenylalaninal 1,1-dioxide]
0.11 | CN1C(C(=O)N[C@H](C=O)Cc2ccccc2)Cc2ccccc2S1(=O)=O (stereo partly drawn) [Cpd 12j, N-(3,4-Dihydro-2-methyl-2H-1,2-benzothiazine-3-carbonyl)-L-phenylalaninal 1,1-dioxide]
~0.2 | CC(C)CN1C(C(=O)N[C@H](C=O)Cc2ccccc2)Cc2cc(Cl)ccc2S1(=O)=O (stereo partly drawn) [Cpd 12n, N-(3,4-Dihydro-6-chloro-2-isobutyl-2H-1,2-benzothiazine-3-carbonyl)-L-phenylalaninal 1,1-dioxide]
0.005 | CN1C(C(=O)N[C@H](C=O)Cc2ccccc2)Cc2cc(Cl)ccc2S1(=O)=O (stereo partly drawn) [Cpd 12p, N-(6-Chloro-3,4-dihydro-2-methyl-2H-1,2-benzothiazine-3-carbonyl)-L-phenylalaninal 1,1-dioxide]
0.015 | CN1C(C(=O)N[C@H](C=O)Cc2ccccc2)Cc2cc(Cl)ccc2S1(=O)=O (stereo partly drawn) [Cpd 12q, N-(6-Chloro-3,4-dihydro-2-methyl-2H-1,2-benzothiazine-3-carbonyl)-L-phenylalaninal 1,1-dioxide]
0.024 | CN1C(C(=O)N[C@H](C=O)Cc2ccccc2)Cc2cc3c(cc2S1(=O)=O)OCCO3 (stereo partly drawn) [Cpd 12r, N-(3,4-Dihydro-6,7-ethylenedioxy-2-methyl-2H-1,2-benzothiazine-3-carbonyl)-L-phenylalaninal 1,1-dioxide]
0.03 | CC(C)N1C(C(=O)N[C@H](C=O)Cc2ccccc2)Cc2cc3c(cc2S1(=O)=O)OCCO3 (stereo partly drawn) [Cpd 12u, N-(3,4-Dihydro-6,7-ethylenedioxy-2-isopropyl-2H-1,2-benzothiazine-3-carbonyl)-L-phenylalaninal 1,1-dioxide]
0.036 | CN1C(C(=O)N[C@H](C=O)CCCCNS(=O)(=O)c2ccccc2)Cc2cc3c(cc2S1(=O)=O)OCCO3 (stereo partly drawn) [Cpd 12x, Nα -(3,4-Dihydro-6,7-ethylenedioxy-2-methyl-2H-1,2-benzothiazine-3-carbonyl)-L-Nε -(benzenesulfonyl)lysinal 1,1-dioxide]
0.107 | CN1C(C(=O)N[C@H](C=O)CCCCNS(=O)(=O)c2ccccc2)Cc2cc3c(cc2S1(=O)=O)OCCO3 (stereo partly drawn) [Cpd 12y, Nα -(3,4-Dihydro-6,7-ethylenedioxy-2-methyl-2H-1,2-benzothiazine-3-carbonyl)-L-Nε -(benzenesulfonyl)lysinal 1,1-dioxide]
~0.5 | CN1C(C(=O)N[C@H](C=O)Cc2ccccc2)Cc2cc(N3CCOCC3)ccc2S1(=O)=O (stereo partly drawn) [Cpd 12z, N-(3,4-Dihydro-6-(4-morpholino)-2-methyl-2H-1,2-benzothiazine-3-carbonyl)-L-phenylalaninal 1,1-dioxide]
~1 | CCNC(=O)C(=O)[C@H](Cc1ccccc1)NC(=O)C1Cc2cc(Cl)ccc2S(=O)(=O)N1C (stereo partly drawn) [Cpd 14A, N-Ethyl-3-(6-chloro-3,4-dihydro-2-methyl-2H-1,2-benzothiazine-3-carboxamido)-2-oxo-3-(S)-benzylpropanamide 1,1-dioxide]

Same assay, conditions: Table V; calpain I, 0.2 mM Succ-Leu-Tyr-MNA, pH 7.5; * mixture of diastereomers, a,b single diastereomers; read-out: IC50

IC50 [µM] | Compound
~1 | CCCN1c2ccccc2S(=O)(=O)N(CC)C1C(=O)N[C@H](C=O)Cc1ccccc1 (single isomer, unassigned) [Cpd 35a, N-(3,4-Dihydro-2-ethyl-4-propyl-2H-1,2,4-benzothiadiazine-3-carbonyl)-L-phenylalaninal 1,1-dioxide]
~3 | CCCN1c2ccccc2S(=O)(=O)N(CC)C1C(=O)N[C@H](C=O)Cc1ccccc1 (single isomer, unassigned) [Cpd 35b, N-(3,4-Dihydro-2-ethyl-4-propyl-2H-1,2,4-benzothiadiazine-3-carbonyl)-L-phenylalaninal 1,1-dioxide]
~10 | CCN1C(C(=O)N[C@H](C=O)Cc2ccccc2)N(Cc2ccccc2)c2ccccc2S1(=O)=O (single isomer, unassigned) [Cpd 35c, N-(3,4-Dihydro-2-ethyl-4-benzyl-2H-1,2,4-benzothiadiazine-3-carbonyl)-L-phenylalaninal 1,1-dioxide]
~1 | CCN1C(C(=O)N[C@H](C=O)Cc2ccccc2)N(Cc2ccccc2)c2ccccc2S1(=O)=O (single isomer, unassigned) [Cpd 35d, N-(3,4-Dihydro-2-ethyl-4-benzyl-2H-1,2,4-benzothiadiazine-3-carbonyl)-L-phenylalaninal 1,1-dioxide]

Same assay, conditions: Table VII; calpain I, 0.2 mM Succ-Leu-Tyr-MNA, pH 7.5; a,b single diastereomers; read-out: IC50

IC50 [µM] | Compound
~5 | O=C[C@H](Cc1ccccc1)NC(=O)C1Cc2ccccc2C(=O)N1 (single isomer, unassigned) [Cpd 50a, N-(1-Oxo-1,2,3,4-tetrahydroisoquinoline-3-carbonyl)-L-phenylalaninal]
~5 | O=C[C@H](Cc1ccccc1)NC(=O)C1Cc2ccccc2C(=O)N1 (single isomer, unassigned) [Cpd 50b, N-(1-Oxo-1,2,3,4-tetrahydroisoquinoline-3-carbonyl)-L-phenylalaninal]
~1 | CN1C(=O)c2ccccc2CC1C(=O)N[C@H](C=O)Cc1ccccc1 (single isomer, unassigned) [Cpd 50c, N-(1-Oxo-2-methyl-1,2,3,4-tetrahydroisoquinoline-3-carbonyl)-L-phenylalaninal]
